In patent US20090111759A1, “Synergistic Combination of Glutamate-and Gaba-Gated Chloride Agonist Pesticide and at Least One Vitamin E, Niacin, or Derivatives Thereof” (priority 2006, published 2009):
Like-named read-outs stand apart in the source and are kept apart here.

Experiments:
Tetranychus urticae = assay: Spray test of Spinosad and tocopheryl acetate on bean plants (Vicia faba), leaf protection (Example 13); format: in vivo; settings: single active, leaf protection 7 days after mites placed, average of four evaluations
Text: Using the alternative method for determining synergism the effect of each mixture of Spinosad and tocopheryl acetate is compared with the effect of the same rate of each of the active ingredients used alone.

[1] = tested on: Onchocerca lienalis microfilariae; assay: Microfilariae mobility test (Example 26)
[2] = tested on: cat fleas (Ctenocephalides felis felis) adult; assay: In vitro contact test on adult fleas (Example 25); settings: tested alone
[3] = tested on: larvae of Lucilia cuprina (sheep blowfly)
Text: A mixture of Spinosad and tocopheryl acetate, all-rac alpha, Ph.

[4] = tested on: adult sea lice (Lepeophtheirus salmonis); settings: tested alone at various concentrations
Procedure: Eur. 5th Ed was studied on adult sea lice (Lepeophtheirus salmonis), a fish parasite, in seawater in Petri dishes. Emamectin benzoate and tocopheryl aceate were tested at various concentrations. In addition, mixtures of Emamectin benzoate and tocopheryl aceate, ratio 1:10 based on weight, were tested as well.

Haemonchus contortus = assay: Larvae feeding inhibition study (Example 23)
Text: (§1) The calculations done according to Wadley and shown in Table 23 indicate that synergistic action of Ivermectin and tocopheryl acetate and Doramectin and tocopheryl acetate was pre-sent in the larvae feed inhibition study. The synergistic action of Ivermectin and tocepheryl acetate in the H. contortus experiment is of particular interest because the H. contortus iso-late used was Ivermectin resistant.

[5] = tested on: Trichostrongylus colubriformis; assay: Larvae feeding inhibition study (Example 23)
Text: as §1

[6] = tested on: Teladorsagia (Ostertagia) circumcincta; assay: Larvae feeding inhibition study (Example 23)
Text: as §1

[7] = tested on: cat fleas (Ctenocephalides felis felis) larvae; assay: In vitro larvae test based on systemic activity (Example 25); settings: tested alone
[8] = tested on: cat fleas (Ctenocephalides felis felis) larvae; assay: In vitro contact test on flea larvae (Example 25); settings: tested alone
Spodoptera exigua larvae [9] = assay: whole plant or invertebrate; settings: read-out: Observed mortality (%)
Procedure: (§3) The efficacy of an Abamectin 18 g/l emulsifiable concentrate formulation (EC) was tested on Spodoptera exiqua larvae on Tradescani crassifolia leaves. The test on Spodoptera exigua was done as a dip-test where Tradescani crassifolia leaves were dipped in the various tests solutions and dried. Afterwards, each leaf was infested with 5 Spodoptera exigua larvae.
(§4) Besides testing the Abamectin 18 g/l EC formulation, Abamectin 18 g/l EC formulation was tested together with 4.5 g/l and 72 g/l nicotinamide. An EC formulation comprising nicotinamide was included in the test as well.

[10] = tested on: Dysdercus cingulatus nymphs; assay: Topical application of Abamectin/nicotinamide acetone solutions, LD50 (Example 7); format: in vivo; settings: sum of Abamectin and nicotinamide; mortality recorded 48 h after applying
Procedure: (§2) A range of Abamectin solutions in acetone was prepared. Similarly, a range of nicotinamide solutions was prepared. Mixed solutions of Abamectin and nicotinamide in acetone were prepared as well. Nymphs of Dysdercus cingulatus were treated topically with either an Abamectin acetone solution (2 μl), a nicotinamide acetone solution (2 μl) or mixed solutions (2 μl).
The Dysdercus cingulatus mortality was recorded 48 h after applying the products. Log dose-mortality curves were constructed for the Abamectin, the nicotinamide and for the mixed solutions. The LD50 values reflect the sum of Abamectin and nicotinamide (active ingredients) present at LD50.
From the observed LD50 values for Abamectin and nicotinamide expected LD50 values for the mixtures were calculated according to Wadley's formula.

Spodoptera exiqua larvae = assay: Topical application of Emamectin-benzoate/tocopherol acetone solutions, LD50 (Example 9); format: in vivo; settings: topical 1 μl acetone solution; mortality recorded 48 h after applying
Procedure: A range of Emamectin-benzoate and tocopherol, all-rac alpha, solutions with varying concentrations of each compound in acetone was prepared. Mixed solutions of Emamectin-benzoate and tocopherol, all-rac alpha, were also prepared. Larvae of Spodoptera exiqua were treated topically with either an Emamectin-benzoate acetone solution (1 μl), a tocopherol acetone solution (1 μl) or a solution containing both of the two compounds in the ratios 1:1 and 1:3 (1 μl). Log dose-mortality curves were constructed for the Emamectin-benzoate solutions, the tocopherol solutions and the mixtures. […] A comparison was made between the actual observed LD50 and the expected value, based on the Wadley method as described previously.

[11] = tested on: Dysdercus cingulatus nymphs; format: in vivo; settings: 2000 ng applied on each nymph; 24 h after applying
Procedure: A range of Abamectin solutions in acetone was prepared. Similarly, a range of tocopherol, all-rac alpha, solutions in acetone was prepared. Abamectin solution (2 μl), tocopherol solution (2 μl) or both were applied topically on nymphs of Dysdercus cingulatus. Abamectin was applied dorsally while tocopherol was applied ventrally. […] The mortality of the nymphs was recorded 24 h after applying the solutions.

[12] = tested on: Dysdercus cingulatus nymphs; assay: Topical application of Abamectin/tocopherol acetone solutions, LD50 (Example 5); format: in vivo; settings: sum of Abamectin and tocopherol; mortality recorded 48 h after applying
Procedure: as §2, with “of tocopherol, all-rac alpha,” for “of nicotinamide”, “and tocopherol” for “and nicotinamide”, “a tocopherol” for “a nicotinamide”, “μl). The Dysdercus cingulatus mortality was recorded 48 h after applying the products.” for “μl).”
Log dose-mortality curves were constructed for the Abamectin and the tocopherol treatments. LD50 values based on the sum of Abamectin and tocopherol contents (ng active ingredient(s) per nymph) were calculated.
From the observed LD50 values for Abamectin and tocopherol expected LD50 values for the mixtures were calculated according to Wadley's formula.

Spodoptera exigua larvae [13] = settings: single ingredient, 10 ppm in tests solution
Procedure: as §3, §4

[14] = tested on: Dysdercus cingulatus nymphs; format: in vivo; settings: for LT50: in total 20,000 ng/nymph applied dorsally, two replicates of ten nymphs
Procedure: Abamectin, Ivermectin and tocopherol solutions in acetone were prepared. Mixed solutions of either Abamectin or Ivermectin and tocopherol were also prepared. Nymphs of Dysdercus cingulatus were treated topically with Abamectin acetone solution (20,000 ng/nymph), Ivermectin acetone solution (20,000 ng/nymph), a tocopherol acetone solution (20,000 ng/nymph) or a solution containing Abamectin and tocopherol or Ivermectin and tocopherol in the ratio 1:3 (20,000 ng total/nymph). The solutions were applied dorsally on the nymphs.
The Dysdercus cingulatus mortality was followed over time and recorded. Log time-mortality curves were constructed for the Abamectin and Ivermectin solutions and for the mixtures with tocopherol. An LT50 value was calculated for each application.

[15] = tested on: Dysdercus cingulatus nymphs; format: in vivo
Procedure: as §2, with “Ivermectin” for “Abamectin”, “tocopherol” for “nicotinamide”
The mortality was recorded after 24 and 48 h. The results were evaluated by the Colby-method.

[16] = tested alone, in the tested dose range
[17] = 30 ng applied per nymph, after 24 h
[18] = 30 ng applied per nymph, after 48 h
[19] = 100 ng applied per nymph, after 24 h
[20] = 100 ng applied per nymph, after 48 h
[21] = 300 ng applied per nymph, after 24 h
[22] = 300 ng applied per nymph, after 48 h
[23] = larvae feeding inhibition 50%, mixtures: based on concentration of IVM or DOR
[24] = larvae feeding inhibition 96%, mixtures: based on concentration of IVM or DOR
[25] = larvae feeding inhibition 99%, mixtures: based on concentration of IVM or DOR

CC(=O)Oc1c(C)c(C)c2c(c1C)CCC(C)(CCC[C@H](C)CCC[C@H](C)CCCC(C)C)O2 (mixture of isomers) [tocopheryl acetate]
% protection (Tetranychus urticae; 100 g/ha): 15%
% protection (Tetranychus urticae; 300 g/ha): 8.8%
effect on mobility of the microfilaria ([1]; alone, in the concentration range tested): did not affect the mobility
activity in its own right [2]: did not have any activity
activity on the larvae [3]: no activity
activity in its own right [4]: did not have any activity
feeding inhibition activity (Haemonchus contortus; [16]): did not have any feeding inhibition activity
feeding inhibition activity [5, 16]: did not have any feeding inhibition activity
feeding inhibition activity [6, 16]: did not have any feeding inhibition activity
activity in its own right [7]: did not have any activity
activity in its own right [8]: did not have any activity

NC(=O)c1cccnc1 [nicotinamide]
mortality at 10 ppm (Spodoptera exigua larvae [9]): 0%
LD50obs [10]: >20,000 ng AI(s) per nymph

Emamectin-benzoate
LD50obs (Spodoptera exiqua larvae): 4.30 ng AI(s)/larvae

Abamectin
% Mortality for each ingredient [11]: 74%
LD50obs [12]: 1595 ng AI(s) per nymph
Observed mortality (%) (Spodoptera exigua larvae [13]): 10%
LT50 [14]: 5.3 h
LD50obs [10]: 126 ng AI(s) per nymph

Cc1c(C)c2c(c(C)c1O)CCC(C)(CCCC(C)CCCC(C)CCCC(C)C)O2 (racemic) [tocopherol, tocopherol, all-rac alpha]
% Mortality for each ingredient [11]: 0%
LD50obs [12]: >20,000 ng tocopherol ng AI(s) per nymph
LD50obs (Spodoptera exiqua larvae): >20000 ng AI(s)/larvae
Mortality (%) for each ingredient [15, 17]: 0%
Mortality (%) for each ingredient [15, 18]: 0%
Mortality (%) for each ingredient [15, 19]: 0%
Mortality (%) for each ingredient [15, 20]: 0%
Mortality (%) for each ingredient [15, 21]: 0%
Mortality (%) for each ingredient [15, 22]: 0%
Mortality during the test period ([14]; 20,000 ng tocopherol per nymph, 24 h test period): did not die

Ivermectin
EC50 ([1]; mobility of the microfilariae, read-out: EC50 value for Ivermectin): 5.8 µM
LFI-50 H. con. (Haemonchus contortus; larvae feeding inhibition 50%, Ivermectin resistant isolate, mixtures: based on concentration of IVM or DOR): 6.10 ppb
LFI-96 H. con. (Haemonchus contortus; larvae feeding inhibition 96%, Ivermectin resistant isolate, mixtures: based on concentration of IVM or DOR): 32.12 ppb
LFI-99 H. con. (Haemonchus contortus; larvae feeding inhibition 99%, Ivermectin resistant isolate, mixtures: based on concentration of IVM or DOR): 40.68 ppb
LFI-50 T. col. [5, 23]: 2.01 ppb
LFI-96 T. col. [5, 24]: 8.63 ppb
LFI-99 T. col. [5, 25]: 10.81 ppb
LFI-50 T. cir. [6, 23]: 6.37 ppb
LFI-96 T. cir. [6, 24]: 12.59 ppb
LFI-99 T. cir. [6, 25]: 17.35 ppb
Mortality (%) for each ingredient [15, 17]: 8%
Mortality (%) for each ingredient [15, 18]: 27%
Mortality (%) for each ingredient [15, 19]: 33%
Mortality (%) for each ingredient [15, 20]: 65%
Mortality (%) for each ingredient [15, 21]: 63%
Mortality (%) for each ingredient [15, 22]: 86%
LT50 [14]: 9.1 h
